The term IC50 denotes the concentration that inhibits the measured activity by half.

The target in experiment [1] is T1, 11beta-HSD1 (Homo sapiens, UniProt P28845). The experiment can be described thus: Microsome assay (cortisone to cortisol, ELISA). The experiment is classed as biochemical. The arrangement: made in house; host or cells: HEK293 cells (ATCC CRL-1573), transient transfection with pcDNA3 construct; microsomal fraction. The following applies: microsomes from HEK293 cells transiently expressing human 11beta-HSD1; 60 min, 37° C.; cortisol production 50% reduced; read-out: h 11-beta-HSD 1 IC50. As to the method: Transient Expression and Partial Purification:
The cDNA encoding the human 11beta-HSD1 protein was cloned into the expression vector pcDNA3 ([…]). This construct (for details see Alex Odermatt et al.; J Biol Chem.,1999, Vol. 274, Issue 40, 28762-28770) was used to transiently express the protein in HEK293 cells (ATCC number: CRL-1573, described in Graham, F. L., Smiley, J., Russell, W. C., Nairn, R.; (1977)) using lipofectamine. 48h after transfection cells were washed twice with ice-cold PBS (Phsophate buffered Saline). To 1 volume of cell suspension in PBS 2 volumes of ice-cold lysis buffer (50 mM Tris; pH7.5; 1 mM EDTA; 100 mM NaCl) were added. The cells were lysed by Potter-homogenization (20 strokes). The resulting homogenate was sonicated wit a tip sonicator (10% output; 2×30 sec.) and cleared by a low speed centrifugation (10 min×9000 g; 4° C.). […]
Microsomes isolated from HEK293 cells transiently expressing human 11beta-HSD1 (for details see above) were incubated in assay buffer (100 mM NaCl; 1 mM EDTA; 1 mM EGTA; 1 mM MgCl; 250 mM Sucrose; 20 mM Tris pH 7.4; Cortisone 50-200 nM and NADPH 1 mM) together with different concentrations of test substances. […] The amount of Cortisol produced in this assay was determined using a commercially available, ELISA-based Cortisol-detection kit (Distributed by Assay Design, Inc.). […]
(In general: In an ELISA, binding on a coated surface is turned into a signal by an enzyme label.)

In experiment [2] the target is T1, 11beta-HSD1. Further details: host or cells: human subjects (in vivo). The following applies: humans, treatment with carbenoxolone; cited from earlier work.

T1 sequence (P28845 whole entry): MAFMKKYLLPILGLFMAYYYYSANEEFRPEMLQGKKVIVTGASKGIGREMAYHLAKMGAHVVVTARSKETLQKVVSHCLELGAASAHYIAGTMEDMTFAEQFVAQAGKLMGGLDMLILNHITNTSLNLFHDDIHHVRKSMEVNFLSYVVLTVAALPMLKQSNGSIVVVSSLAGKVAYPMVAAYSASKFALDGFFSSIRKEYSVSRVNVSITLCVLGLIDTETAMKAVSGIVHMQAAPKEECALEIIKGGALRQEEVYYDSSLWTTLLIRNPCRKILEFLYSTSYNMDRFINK

`Cc1c(Cl)cccc1S(=O)(=O)Nc1ccc(Oc2ccc(F)cc2)cn1` [Example 186, 3-Chloro-N-[5-(4-fluoro-phenoxy)-pyridin-2-yl]-2-methyl-benzenesulfonamide benzenesulfonamide]: the IC50 at 11beta-HSD1 [1] is 5 nM.
The same measure, in the same setting: in the case of `O=S(=O)(Nc1cccc(COCc2ccc(F)cc2)n1)c1ccc(F)cc1` [Example 105, 4-Fluoro-N-[6-(4-fluoro-benzyloxymethyl)-pyridin-2-yl]-benzenesulfonamide] it was 16 nM.
Turning to `CC1(C)[C@@H](OC(=O)CCC(=O)O)CC[C@]2(C)[C@H]3C(=O)C=C4[C@@H]5C[C@@](C)(C(=O)O)CC[C@]5(C)CC[C@@]4(C)[C@]3(C)CC[C@@H]12` [carbenoxolone], the insulin sensitivity result at 11beta-HSD1 [2] is “increase in insulin sensitivity”.

Values taken from patent US7482341B2, “Pyridines” (Hoffmann-La Roche Inc., priority 2004, dated 2009).
